Reference: article PMC10014103, “The immunometabolite itaconate stimulates OXGR1 to promote mucociliary clearance during the pulmonary innate immune response” (The Journal of Clinical Investigation, 2023)

Experiments:
mouse trachea = test: Ex vivo trachea culture, cilia beating-derived fluorescent bead movement; conditions: 500 μM ITA or 100 μM ATP
Description: Tracheas were harvested from mice and cut longitudinally through the middle of the trachealis muscle to expose the lumen of the trachea. Tracheas were then transferred into HBSS buffer and equilibrated for 30 minutes. With the lumen facing down, trachea tissues were transferred into 2 mL HBSS buffer supplemented with 0.5% methylcellulose, red fluorescent beads, 30 mM HEPES, and the indicated ligand. Bead flow was monitored with the BioTek Cytation 5 cell imaging system. Twenty individual beads were tracked from different fields of view in each condition, and the speed of each bead was calculated by […].

[1] = system: primary respiratory epithelial cells from Oxgr1+/+ and Oxgr1–/– mice; test: Calcium imaging (Fluo-4AM) of primary mouse trachea epithelial cells; type: cell-based; conditions: 670 μM ITA or 100 μM ATP
Description: For calcium imaging of human primary bronchial epithelial cells, cells were infected with 2 CRISPR lentiviruses targeting OXGR1 and cultured for 2 days before calcium imaging. For calcium imaging of primary mouse cells, freshly isolated mouse tracheas were cut into rings, placed onto collagen-coated dishes, and cultured in DMEM supplemented with 10% FBS. Cells were loaded with 5 μM Fluo-4AM for 30 minutes in HBSS buffer, washed twice, and incubated for another 15 minutes for fully deesterification of Fluo-4AM. Cells loaded with Fluo-4AM were monitored with the BioTek Cytation 5 Cell imaging system every 300 ms for a total of 1.5 minutes after ligand administration. Fluorescence was quantified with ImageJ software (NIH).

human OXGR1 [2] = target: T1, human OXGR1 (Homo sapiens, UniProt Q96P68); test: Aequorin assay (calcium mobilization) in HEK293 cells overexpressing human OXGR1; type: cell-based
Description: (§1) Thirty-six hours after transfection, cells were maintained in serum-free medium for 12 hours and then loaded with 5 μM coelenterazine for 3 hours. Cells were trypsinized and resuspended at a density of 5 × 10^5 cells/mL in HBSS supplemented with 10 mM HEPES and 0.5% BSA. Cell suspensions of 100 μL were aliquoted into 96-well plates.

FLAG-tagged OXGR1 = target: T2, FLAG-tagged OXGR1 (Homo sapiens, UniProt Q96P68); test: Endocytosis assay of FLAG-tagged OXGR1 in HEK293 cells; type: cell-based; conditions: WT OXGR1, within 10 minutes of ligand treatment
T2 construct: expressed in transfected cells
Description: For endocytosis assays, HEK293 cells stably expressing FLAG-OXGR1 were chilled on ice in DMEM medium supplemented with 30 mM HEPES for 10 minutes. […] Unbound antibody was then washed off with prechilled HBSS buffer. […] After ligand stimulation, cells were fixed and permeabilized. Subcellular localization of FLAG-tagged OXGR1 was detected using FITC-donkey anti-rabbit antibody (Invitrogen, Thermo Fisher Scientific), and nuclei were stained with DAPI (MilliporeSigma). Immunofluorescence images were captured with a Leica SP8 laser-scanning confocal microscope.

mouse OXGR1 = target: T3, mouse OXGR1 (Mus musculus, UniProt Q6IYF8); test: Aequorin assay (calcium mobilization) in HEK293 cells overexpressing mouse OXGR1; type: cell-based; conditions: EC50, aequorin assay, mOXGR1 in HEK293 cells
T3 construct: expressed in transfected cells; host or cells: HEK293
T3 sequence (Q6IYF8 whole entry): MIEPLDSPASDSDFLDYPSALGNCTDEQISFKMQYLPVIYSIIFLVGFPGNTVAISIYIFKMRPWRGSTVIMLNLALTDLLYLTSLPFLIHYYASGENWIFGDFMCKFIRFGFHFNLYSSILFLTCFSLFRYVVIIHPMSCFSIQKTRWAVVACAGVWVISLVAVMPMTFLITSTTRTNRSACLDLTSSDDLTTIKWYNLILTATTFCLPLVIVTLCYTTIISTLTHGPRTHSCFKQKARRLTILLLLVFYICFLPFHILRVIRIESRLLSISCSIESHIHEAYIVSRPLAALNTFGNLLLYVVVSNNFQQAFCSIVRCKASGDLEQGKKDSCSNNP
Description: as §1

human OXGR1 [3] = target: T1, human OXGR1; test: Fluo-4 assay in HEK293 cells expressing human OXGR1; type: cell-based
Description: For the Fluo-4AM assay, OXGR1-expressing cells were loaded with 2 μM Fluo-4AM for 30 minutes at 37°C. Excess Fluo-4AM was then washed off with HBSS buffer. After incubation at 37°C for another 10 minutes, cells were transferred onto a 96-well plate.

Row | SMILES | movement of beads, trachea from Oxgr1+/+ mice (mouse trachea) | movement of beads, trachea from Oxgr1–/– mice (mouse trachea) | calcium mobilization, Oxgr1+/+ cells [1] | calcium mobilization, Oxgr1–/– cells [1] | calcium response (agonist effect) (human OXGR1 [2]; HEK293 cells overexpressing human OXGR1, aequorin) | effect on α-KG– or ITA-triggered intracellular Ca2+ release (human OXGR1 [2]; addition of LTE4, OXGR1-expressing HEK293 cells) | endocytosis of OXGR1 (FLAG-tagged OXGR1) | EC50 (human OXGR1 [2]) [µM] | EC50 (mouse OXGR1) [µM] | EC50 (human OXGR1 [3]) [µM]
1 | Nc1ncnc2c1ncn2[C@@H]1O[C@H](COP(=O)(O)OP(=O)(O)OP(=O)(O)O)[C@@H](O)[C@H]1O [ATP, reference compound] | comparable speed of bead movement | comparable speed of bead movement | normal calcium release | normal calcium release |  |  |  |  |  | 
2 | CCCCC/C=C\C\C=C/C=C/C=C/[C@@H](SC[C@H](N)C(=O)O)[C@@H](O)CCCC(=O)O [LTE4, Leukotriene E4, reference compound] |  |  |  |  | failed to show any agonizing effect | did not prevent, and even moderately enhanced | failed to show any agonizing effect |  |  | 
3 | O=C(O)CCC(=O)C(=O)O [α-KG, α-ketoglutaric acid, reference compound] |  |  |  |  |  |  | rapid endocytosis of OXGR1 was triggered | 248 ± 58.6 | 241 ± 61.1 | 161 ± 34.7
